Test results as given in PubChem BioAssay AID2060509 (Molecular Pharmacology Branch, DTP, NCI, 2025).

Test system: 485176-168-R4-J1-PDC spheroids with HUVEC/MSC, viability
Assay: Anticancer human tumor 485176-168-R4-J1-PDC patient-derived pancreatic adenocarcinoma cell line growth inhibition [GQUAD]
Conditions: for IC50: curve of first compound; for viability, T/C: stronger effect = lower value
How it was run: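 Viability of tumor cells grown as complex spheroids with endothelial and stromal cells, exposed to drug combinations. Top concentration at or near clinical Cmax (else 10 microM), diluted in half-log increments.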

[1] = second compound 0.0316 µM, first compound 0.0316 µM
[2] = second compound 0.0316 µM, first compound 0.1 µM
[3] = second compound 0.0316 µM, first compound 0.316 µM
[4] = second compound 0.0316 µM, first compound 1 µM
[5] = second compound 0.0316 µM, first compound 3.16 µM
[6] = second compound 0.0316 µM, first compound 10 µM
[7] = second compound 0.1 µM, first compound 0.0316 µM
[8] = second compound 0.1 µM, first compound 0.1 µM
[9] = second compound 0.1 µM, first compound 0.316 µM
[10] = second compound 0.1 µM, first compound 1 µM
[11] = second compound 0.1 µM, first compound 3.16 µM
[12] = second compound 0.1 µM, first compound 10 µM
[13] = second compound 0.316 µM, first compound 0.0316 µM
[14] = second compound 0.316 µM, first compound 0.1 µM
[15] = second compound 0.316 µM, first compound 0.316 µM
[16] = second compound 0.316 µM, first compound 1 µM
[17] = second compound 0.316 µM, first compound 3.16 µM
[18] = second compound 0.316 µM, first compound 10 µM
[19] = second compound 1 µM, first compound 0.0316 µM
[20] = second compound 1 µM, first compound 0.1 µM
[21] = second compound 1 µM, first compound 0.316 µM
[22] = second compound 1 µM, first compound 1 µM
[23] = second compound 1 µM, first compound 3.16 µM
[24] = second compound 1 µM, first compound 10 µM
[25] = second compound 3.16 µM, first compound 0.0316 µM
[26] = second compound 3.16 µM, first compound 0.1 µM
[27] = second compound 3.16 µM, first compound 0.316 µM
[28] = second compound 3.16 µM, first compound 1 µM
[29] = second compound 3.16 µM, first compound 3.16 µM
[30] = second compound 3.16 µM, first compound 10 µM
[31] = second compound 10 µM, first compound 0.0316 µM
[32] = second compound 10 µM, first compound 0.1 µM
[33] = second compound 10 µM, first compound 0.316 µM
[34] = second compound 10 µM, first compound 1 µM
[35] = second compound 10 µM, first compound 3.16 µM
[36] = second compound 10 µM, first compound 10 µM
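Also: spheroids exposed to compounds for seven days before readout.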
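For viability, T/C in this document: percent viability relative to DMSO vehicle control wells as 100%.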

Which IC50 (second compound 0.0316 µM) does the source give for Nc1ccn(C2OC(CO)C(O)C2(F)F)c(=O)n1 (stereo unspecified) + Cc1cnc(CNC(=O)c2c(=O)c3ccc(N4CCCN(C)CC4)nc3n3c2sc2ccccc23)cn1 here?
Its IC50 is 42.2 nM.

And the IC50 (second compound 0.1 µM)?
Its IC50 is 33.1 nM.

What about the IC50 (second compound 0.316 µM) of the same molecule?
Its IC50 is 42.6 nM.

And the IC50 (second compound 1 µM)?
Its IC50 is under 31.6 nM.

What about the IC50 (second compound 3.16 µM) of the same molecule?
The IC50 was under 31.6 nM.

What about the IC50 (second compound 10 µM) of the same molecule?
Its IC50 is under 31.6 nM.

And the viability, T/C [1]?
The viability, T/C was 60.9%.

What about the viability, T/C [2] of the same molecule?
Its viability, T/C is 17.7%.

What about the viability, T/C [3] of the same molecule?
Its viability, T/C is 11%.

What about the viability, T/C [4] of the same molecule?
The viability, T/C was 8.82%.

And the viability, T/C [5]?
Its viability, T/C is 8.83%.

What about the viability, T/C [6] of the same molecule?
The viability, T/C was 9.73%.

And the viability, T/C [7]?
The viability, T/C was 51.1%.

And the viability, T/C [8]?
The viability, T/C was 24.9%.

What about the viability, T/C [9] of the same molecule?
The viability, T/C was 7.73%.

What about the viability, T/C [10] of the same molecule?
The viability, T/C was 11.8%.

And the viability, T/C [11]?
The viability, T/C was 11.2%.

And the viability, T/C [12]?
The viability, T/C was 12.9%.

And the viability, T/C [13]?
Its viability, T/C is 60.3%.

What about the viability, T/C [14] of the same molecule?
Its viability, T/C is 22%.

What about the viability, T/C [15] of the same molecule?
The viability, T/C was 10.2%.

And the viability, T/C [16]?
The viability, T/C was 10.3%.

What about the viability, T/C [17] of the same molecule?
The viability, T/C was 11.5%.

What about the viability, T/C [18] of the same molecule?
Its viability, T/C is 11.2%.

What about the viability, T/C [19] of the same molecule?
Its viability, T/C is 40.8%.

What about the viability, T/C [20] of the same molecule?
The viability, T/C was 19.7%.

What about the viability, T/C [21] of the same molecule?
The viability, T/C was 11.4%.

What about the viability, T/C [22] of the same molecule?
Its viability, T/C is 11.6%.

What about the viability, T/C [23] of the same molecule?
Its viability, T/C is 12.7%.

What about the viability, T/C [24] of the same molecule?
Its viability, T/C is 11.7%.

And the viability, T/C [25]?
Its viability, T/C is 43.6%.

What about the viability, T/C [26] of the same molecule?
Its viability, T/C is 20.3%.

And the viability, T/C [27]?
Its viability, T/C is 11.1%.

What about the viability, T/C [28] of the same molecule?
Its viability, T/C is 9.17%.

What about the viability, T/C [29] of the same molecule?
The viability, T/C was 12.5%.

And the viability, T/C [30]?
Its viability, T/C is 12.6%.

What about the viability, T/C [31] of the same molecule?
The viability, T/C was 37%.

And the viability, T/C [32]?
Its viability, T/C is 24.6%.

What about the viability, T/C [33] of the same molecule?
Its viability, T/C is 10.4%.

And the viability, T/C [34]?
The viability, T/C was 10.4%.

And the viability, T/C [35]?
Its viability, T/C is 11.1%.

And the viability, T/C [36]?
The viability, T/C was 9.2%.

Which IC50 (second compound 0.0316 µM) does the source give for C=CCn1c(=O)c2cnc(Nc3ccc(N4CCN(C)CC4)cc3)nc2n1-c1cccc(C(C)(C)O)n1 + Cc1[nH]c2ccc(F)cc2c1-c1nc2c3cccnc3c3ncccc3c2[nH]1 here?
Its IC50 is 401 nM.

And the IC50 (second compound 0.1 µM)?
Its IC50 is 386 nM.

What about the IC50 (second compound 0.316 µM) of the same molecule?
Its IC50 is 469 nM.

And the IC50 (second compound 1 µM)?
The IC50 was 468 nM.

And the IC50 (second compound 3.16 µM)?
The IC50 was 360 nM.

What about the IC50 (second compound 10 µM) of the same molecule?
The IC50 was 309 nM.

And the viability, T/C [1]?
Its viability, T/C is 103%.

What about the viability, T/C [2] of the same molecule?
Its viability, T/C is 96.9%.

And the viability, T/C [3]?
Its viability, T/C is 55.1%.

And the viability, T/C [4]?
Its viability, T/C is 22.6%.

What about the viability, T/C [5] of the same molecule?
Its viability, T/C is 7.84%.

What about the viability, T/C [6] of the same molecule?
Its viability, T/C is 3.33%.

And the viability, T/C [7]?
The viability, T/C was 105%.

What about the viability, T/C [8] of the same molecule?
Its viability, T/C is 82.8%.

And the viability, T/C [9]?
Its viability, T/C is 60.2%.

What about the viability, T/C [10] of the same molecule?
Its viability, T/C is 20%.

What about the viability, T/C [11] of the same molecule?
Its viability, T/C is 7.9%.

And the viability, T/C [12]?
The viability, T/C was 4.23%.

What about the viability, T/C [13] of the same molecule?
The viability, T/C was 98.2%.

And the viability, T/C [14]?
The viability, T/C was 81.1%.

What about the viability, T/C [15] of the same molecule?
Its viability, T/C is 65.8%.

And the viability, T/C [16]?
Its viability, T/C is 25%.

And the viability, T/C [17]?
The viability, T/C was 6.26%.

And the viability, T/C [18]?
The viability, T/C was 4.73%.

And the viability, T/C [19]?
Its viability, T/C is 115%.

What about the viability, T/C [20] of the same molecule?
The viability, T/C was 94.4%.

What about the viability, T/C [21] of the same molecule?
Its viability, T/C is 66.7%.

What about the viability, T/C [22] of the same molecule?
Its viability, T/C is 22%.

What about the viability, T/C [23] of the same molecule?
Its viability, T/C is 7.76%.

And the viability, T/C [24]?
Its viability, T/C is 4.28%.

And the viability, T/C [25]?
The viability, T/C was 114%.

And the viability, T/C [26]?
The viability, T/C was 75.1%.

And the viability, T/C [27]?
Its viability, T/C is 63.7%.

What about the viability, T/C [28] of the same molecule?
Its viability, T/C is 23.2%.

What about the viability, T/C [29] of the same molecule?
Its viability, T/C is 6.68%.

And the viability, T/C [30]?
Its viability, T/C is 4.03%.

What about the viability, T/C [31] of the same molecule?
The viability, T/C was 101%.

What about the viability, T/C [32] of the same molecule?
The viability, T/C was 82.4%.

What about the viability, T/C [33] of the same molecule?
Its viability, T/C is 50.1%.

And the viability, T/C [34]?
Its viability, T/C is 18.9%.

And the viability, T/C [35]?
Its viability, T/C is 5.54%.

And the viability, T/C [36]?
Its viability, T/C is 3.76%.

For O=c1[nH]cc(F)c(=O)[nH]1 + CN(C)c1ccc(Nc2c3ccc(NC(=O)CCN4CCCC4)cc3nc3cc(NC(=O)CCN4CCCC4)ccc23)cc1, which IC50 (second compound 0.0316 µM) is on record?
Its IC50 is over 10000 nM.

What about the IC50 (second compound 0.1 µM) of the same molecule?
The IC50 was 2630 nM.

What about the IC50 (second compound 0.316 µM) of the same molecule?
The IC50 was over 10000 nM.

What about the IC50 (second compound 1 µM) of the same molecule?
The IC50 was over 10000 nM.

And the IC50 (second compound 3.16 µM)?
The IC50 was over 10000 nM.

What about the IC50 (second compound 10 µM) of the same molecule?
Its IC50 is 932 nM.

What about the viability, T/C [1] of the same molecule?
Its viability, T/C is 100%.

What about the viability, T/C [2] of the same molecule?
The viability, T/C was 105%.

What about the viability, T/C [3] of the same molecule?
Its viability, T/C is 78.8%.

And the viability, T/C [4]?
The viability, T/C was 61.8%.

And the viability, T/C [5]?
The viability, T/C was 53.6%.

What about the viability, T/C [6] of the same molecule?
Its viability, T/C is 53.6%.

And the viability, T/C [7]?
Its viability, T/C is 102%.

What about the viability, T/C [8] of the same molecule?
Its viability, T/C is 87.7%.

And the viability, T/C [9]?
The viability, T/C was 88.8%.

What about the viability, T/C [10] of the same molecule?
The viability, T/C was 56.2%.

And the viability, T/C [11]?
The viability, T/C was 46.3%.

What about the viability, T/C [12] of the same molecule?
Its viability, T/C is 51%.

What about the viability, T/C [13] of the same molecule?
The viability, T/C was 97.3%.

And the viability, T/C [14]?
Its viability, T/C is 91.5%.

What about the viability, T/C [15] of the same molecule?
Its viability, T/C is 83.3%.

And the viability, T/C [16]?
The viability, T/C was 52%.

What about the viability, T/C [17] of the same molecule?
The viability, T/C was 66.1%.

What about the viability, T/C [18] of the same molecule?
Its viability, T/C is 57.2%.

And the viability, T/C [19]?
The viability, T/C was 94.4%.

And the viability, T/C [20]?
Its viability, T/C is 106%.

What about the viability, T/C [21] of the same molecule?
Its viability, T/C is 71.4%.

And the viability, T/C [22]?
Its viability, T/C is 56.1%.

And the viability, T/C [23]?
The viability, T/C was 52%.

What about the viability, T/C [24] of the same molecule?
Its viability, T/C is 53.2%.

And the viability, T/C [25]?
The viability, T/C was 90.8%.

And the viability, T/C [26]?
Its viability, T/C is 94.1%.

What about the viability, T/C [27] of the same molecule?
The viability, T/C was 73.9%.

What about the viability, T/C [28] of the same molecule?
The viability, T/C was 59.6%.

And the viability, T/C [29]?
Its viability, T/C is 61.8%.

What about the viability, T/C [30] of the same molecule?
The viability, T/C was 47.2%.

What about the viability, T/C [31] of the same molecule?
The viability, T/C was 84.9%.

What about the viability, T/C [32] of the same molecule?
The viability, T/C was 80.2%.

And the viability, T/C [33]?
The viability, T/C was 59.9%.

What about the viability, T/C [34] of the same molecule?
Its viability, T/C is 51.4%.

And the viability, T/C [35]?
Its viability, T/C is 46.4%.

What about the viability, T/C [36] of the same molecule?
The viability, T/C was 45.5%.
